According to PubChem BioAssay (NCI):
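All cell lines were grown in 96-well plates and treated with compound for 48 hours. GI50 is the concentration that inhibits growth by half. TGI: concentration producing complete growth inhibition.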

What was measured:
Assay in all cases: DTP human tumour cell line panel, 48 h
[1] = system: BT-549 breast
[2] = system: CAKI-1 renal
[3] = system: DU-145 prostate
[4] = system: MALME-3M melanoma
[5] = system: NCI/ADR-RES ovarian
[6] = system: OVCAR-3 ovarian
[7] = system: SF-268 CNS
[8] = system: SK-MEL-5 melanoma

SMILES	GI50 [1] [µM]	TGI [1] [µM]	GI50 [2] [µM]	TGI [2] [µM]	GI50 [3] [µM]	TGI [3] [µM]	GI50 [4] [µM]	TGI [4] [µM]	GI50 [5] [µM]	TGI [5] [µM]	GI50 [6] [µM]	TGI [6] [µM]	GI50 [7] [µM]	TGI [7] [µM]	GI50 [8] [µM]	TGI [8] [µM]
CC[C@H](Nc1nc(N)nc(C)c1C#N)c1nc2cccc(CN(C)c3ncc(C(=O)NO)cn3)c2c(=O)n1-c1ccccc1	2.26	12.5	2.61	6.56	1.11	> 16.7	0.129	2.47	11.4	> 50	0.761	2.28	1.09	4.19	0.391	1.12
COc1cc2c(cc1OC)-c1ccc3cc4c(cc3c1N(CCN1CCCC1)C2)OCO4	1.6	9.01	0.814	11.5	0.376	2.5	2.05	14.2	7	53.8	0.854	2.23	0.36	2	1.48	3.09
Cc1cc(N2CCCCC2)nc(N(CCNc2ccnc3cc(Cl)ccc23)Cc2ccco2)n1	1.82	3.5	–	–	2.87	9.2	1.98	3.65	1.79	3.71	1.74	3.14	2.57	6.53	1.68	3.07
Nc1ncnc2sc(=S)c3c(c12)CCC3	22.5	68.2	30.9	> 100	19.1	57.4	66.4	> 100	30.1	> 100	30.7	> 100	26.9	75.6	4.81	29.8
N#CSc1ncnc2nc[nH]c12	> 28.7	> 100	2.01	30.1	0.548	> 38.7	10.6	> 100	5.68	> 100	1.66	> 31.6	4.24	> 41.1	15.2	> 100
COc1ccc(C(=O)/C=C/c2ccc(Cl)cc2)cc1S(=O)(=O)Nc1c(N)nc(SC)[nH]c1=O	1.63	3.17	3.83	18.6	3.58	11.5	3.02	9.93	40.1	> 100	1.94	3.94	2.69	7.32	2.72	9.59
Cc1ccc2[nH]c(C(=O)NN3C(=O)CSC34CCCCC4C)c(-c3ccccc3)c2c1 (configuration not stated)	20	36.7	16.1	32.2	18.2	44.1	17.3	35.6	–	–	13.9	30.1	17.2	37.4	15.1	31.3
COc1cccc(OC(=O)c2ccccc2Nc2ccnc(C(F)(F)F)c2)c1	8.11	55	2.68	80.2	–	–	–	–	–	–	1.65	10.5	4.65	26.7	2.23	–
C=CCC(N[C@H](CO)C(C)C)c1cn(C(=O)OCC)c2ccccc12 (some centres not stated)	24.7	67.8	13.8	41.1	30.1	> 100	–	–	21.8	61	16.6	43.3	33.4	> 100	10.2	23.7
CCOC(=O)c1c2c(n(CC(C)C)c1C)-c1nc[nH]c1C(=O)C2=O	16.4	30.4	17.7	57.8	16.1	29.6	21.1	36.6	–	–	13	26.3	15.2	28.5	16.2	30.2
COc1cc2cc(Oc3ccc(NC(=O)Nc4ccc(Cl)c(C(F)(F)F)c4)cc3)c(C)nc2cc1OCCN1CCCCC1	1.79	3.45	1.31	2.64	1.53	2.87	1.62	3.13	1.69	3.27	1.6	3.03	–	–	1.65	3.04
COc1cc(Cn2cc3c(c2)-c2oncc2CC3)cc(OC)c1OC	0.111	> 100	0.0337	> 42.1	0.0412	> 100	0.0254	30.3	0.0268	–	–	–	0.0778	> 55.4	0.0366	0.195
Nc1nc(/C=C\c2ccc([N+](=O)[O-])o2)nc(N2CCN(c3ccccc3)CC2)n1	15.7	> 100	3.5	10.8	3.9	41.4	–	–	19.2	54.8	3.96	18.2	11.7	> 100	6.14	25.1
CC1(C)CCC2(C(=O)OC3OC(CO)C(O)C(O)C3O)CC[C@]3(C)C(=CCC4C5(C)CC[C@H](OC6OC(C(=O)O)C(O)C(O)C6O)C(C)(C)C5CCC43C)C2C1 (some centres not stated)	1.7	25.8	17.2	> 50	–	–	–	–	> 50	> 50	3.27	> 50	2.17	11.4	0.929	1.78
CC(=O)OC1c2ccccc2CC2(OC(C)=O)c3ccccc3C12 (configuration not stated)	–	–	–	> 100	–	> 100	–	> 100	–	> 100	–	> 100	–	> 100	–	–
Cc1ccc(C(=O)Nc2ccc(S(=O)(=O)O)c3cc(S(=O)(=O)O)cc(S(=O)(=O)O)c23)cc1NC(=O)c1cccc(N)c1	–	> 100	–	> 100	–	–	–	> 100	–	> 100	–	> 100	–	> 100	–	> 100
O=C1c2ccccc2C(=O)N1CC1(C(=O)O)NCCS1(=O)=O (configuration not stated)	–	> 100	–	> 100	–	–	–	> 100	–	> 100	–	> 100	–	> 100	–	> 100
COc1cc2nc(Cl)nc(Nc3cccc(C(=O)/C=C/c4ccccc4)c3)c2cc1OC	2.36	7.83	4.17	35.4	> 48.8	> 100	–	–	4.26	> 100	3.75	31.3	4.99	81.4	> 22.8	> 100
